From PMC10052868 (European journal of medicinal chemistry, 2022)
“Also recorded” adds a separate entry of the source. Structures can show the parent of a compound that is named as a salt.

Each compound was assayed on P. falciparum 3D7 (assay: P. falciparum asexual blood stage viability assay). Conditions: Inactive = no inhibition when tested in triplicate at a single concentration of 1 μM.
Assay type: cell-based

SMILES | Pf3D7 blood stage activity at single concentration
COc1cc2nccc(Oc3ccc(NC(=O)Nc4cccc(CN5CCN(C)CC5)c4)c(F)c3)c2cc1OC [Compound 42, 1-(4-((6,7-dimethoxyquinolin-4-yl)oxy)-2-fluorophenyl)-3-(3-((4-methylpiperazin-1-yl)methyl)phenyl)urea diformate] | loss of P. falciparum blood stage activity; also recorded: Inactive^e
COc1cc2nccc(Oc3ccc(NC(=O)Nc4ccc(C(=O)N5CCN(C)CC5)cc4)c(F)c3)c2cc1OC [Compound 43, 1-(4-((6,7-dimethoxyquinolin-4-yl)oxy)-2-fluorophenyl)-3-(4-(4-methylpiperazine-1-carbonyl)phenyl)urea] | did not observe antiplasmodial activity; also recorded: Inactive^e
COc1cc2nccc(Oc3ccc(NC(=O)Nc4cccc(C(=O)N5CCN(C)CC5)c4)c(F)c3)c2cc1OC [Compound 44, 1-(4-((6,7-dimethoxyquinolin-4-yl)oxy)-2-fluorophenyl)-3-(3-(4-methylpiperazine-1-carbonyl)phenyl)urea] | did not observe antiplasmodial activity; also recorded: Inactive^e
COc1cc2nccc(Oc3ccc(NC(=O)Nc4ccc(C(=O)N5CCN(C)CC5)c(C(F)(F)F)c4)c(F)c3)c2cc1OC [Compound 47, 1-(4-((6,7-dimethoxyquinolin-4-yl)oxy)-2-fluorophenyl)-3-(4-(4-methylpiperazine-1-carbonyl)-3-(trifluoromethyl)phenyl)urea] | Inactive^e
COc1cc2nccc(Oc3ccc(NC(=O)Nc4cc(C(=O)N5CCN(C)CC5)cc(C(F)(F)F)c4)c(F)c3)c2cc1OC [Compound 48, 1-(4-((6,7-dimethoxyquinolin-4-yl)oxy)-2-fluorophenyl)-3-(3-(4-methylpiperazine-1-carbonyl)-5-(trifluoromethyl)phenyl)urea formate] | Inactive^e
COc1cc2nccc(Oc3ccc(NC(=O)Nc4cccc(Br)c4)c(F)c3)c2cc1OC [Compound 50, 1-(3-bromophenyl)-3-(4-((6,7-dimethoxyquinolin-4-yl)oxy)-2-fluorophenyl)urea] | Inactive^d
COc1cc2nccc(Oc3ccc(NC(=O)Nc4cccc(C(C)C)c4)c(F)c3)c2cc1OC [Compound 52, 1-(4-((6,7-dimethoxyquinolin-4-yl)oxy)-2-fluorophenyl)-3-(3-isopropylphenyl)urea] | Inactive^d
COc1cccc(NC(=O)Nc2ccc(Oc3ccnc4cc(OC)c(OC)cc34)cc2F)c1 [Compound 54, 1-(4-((6,7-dimethoxyquinolin-4-yl)oxy)-2-fluorophenyl)-3-(3-methoxyphenyl)urea] | Inactive^d
COc1cc2nccc(Oc3ccc(NC(=O)Nc4cccc(OC(C)C)c4)c(F)c3)c2cc1OC [Compound 55, 1-(4-((6,7-dimethoxyquinolin-4-yl)oxy)-2-fluorophenyl)-3-(3-isopropoxyphenyl)urea] | Inactive^d
COc1cc2nccc(Oc3ccc(NC(=O)Nc4cccc(OC(F)F)c4)c(F)c3)c2cc1OC [Compound 56, 1-(3-(difluoromethoxy)phenyl)-3-(4-((6,7-dimethoxyquinolin-4-yl)oxy)-2-fluorophenyl)urea] | Inactive^d
COc1cc2nccc(Oc3ccc(NC(=O)Nc4cccc(C#N)c4)c(F)c3)c2cc1OC [Compound 58, 1-(3-cyanophenyl)-3-(4-((6,7-dimethoxyquinolin-4-yl)oxy)-2-fluorophenyl)urea] | Inactive^d
COc1cc2nccc(Oc3ccc(NC(=O)Nc4ccc(CN5CCOCC5)cc4)c(F)c3)c2cc1OC [Compound 60, 1-(4-((6,7-dimethoxyquinolin-4-yl)oxy)-2-fluorophenyl)-3-(4-(morpholinomethyl)phenyl)urea] | Inactive^c

Same assay, conditions: Inactive = no inhibition when tested up to 5 μM in two experiments, dose-response

SMILES | Pf3D7 blood stage activity in dose-response
COc1cc2nccc(Oc3ccc(NC(=O)Nc4cc(C(F)(F)F)ccc4F)c(F)c3)c2cc1OC [Compound 40, 1-(4-((6,7-dimethoxyquinolin-4-yl)oxy)-2-fluorophenyl)-3-(2-fluoro-5-(trifluoromethyl)phenyl)urea] | Inactive^d

Same assay, conditions: compared to parent compound without meta group (64, 66, 67 or 68)

SMILES | fold improvement in P. falciparum blood stage potency on adding CF3 or OCF3
COc1cc2nccc(Oc3ccc(NC(=O)Nc4ccc(OC5CCN(C)CC5)c(OC(F)(F)F)c4)c(F)c3)c2cc1OC [Compound 76, 1-(4-((6,7-dimethoxyquinolin-4-yl)oxy)-2-fluorophenyl)-3-(4-((1-methylpiperidin-4-yl)oxy)-3-(trifluoromethoxy)phenyl)urea] | 4 fold
COc1cc2nccc(Oc3ccc(NC(=O)Nc4ccc(N(C)C5CCN(C)CC5)c(C(F)(F)F)c4)c(F)c3)c2cc1OC [Compound 77, 1-(4-((6,7-dimethoxyquinolin-4-yl)oxy)-2-fluorophenyl)-3-(4-(methyl(1-methylpiperidin-4-yl)amino)-3-(trifluoromethyl)phenyl)urea] | 2 fold
COc1cc2nccc(Oc3ccc(NC(=O)Nc4ccc(CC5CCNCC5)c(OC(F)(F)F)c4)c(F)c3)c2cc1OC [Compound 80, 1-(4-((6,7-dimethoxyquinolin-4-yl)oxy)-2-fluorophenyl)-3-(4-(piperidin-4-ylmethyl)-3-(trifluoromethoxy)phenyl)urea] | 2 fold
COc1cc2nccc(Oc3ccc(NC(=O)Nc4ccc(C=C5CCNCC5)c(C(F)(F)F)c4)c(F)c3)c2cc1OC [Compound 81, 1-(4-((6,7-dimethoxyquinolin-4-yl)oxy)-2-fluorophenyl)-3-(4-(piperidin-4-ylidenemethyl)-3-(trifluoromethyl)phenyl)urea] | 2 fold
COc1cc2nccc(Oc3ccc(NC(=O)Nc4ccc(C=C5CCNCC5)c(OC(F)(F)F)c4)c(F)c3)c2cc1OC [Compound 82, 1-(4-((6,7-dimethoxyquinolin-4-yl)oxy)-2-fluorophenyl)-3-(4-(piperidin-4-ylidenemethyl)-3-(trifluoromethoxy)phenyl)urea] | 2 fold

The compounds below were run against PfPK6 (Plasmodium falciparum, UniProt Q8IDW1) (assay: KinaseSeeker split-luciferase assay on PfPK6). Conditions: not given.
Assay type: binding, P. falciparum

SMILES | IC50
COc1cc2nccc(Oc3ccc(NC(=O)Nc4cccc(C(F)(F)F)c4)c(F)c3)c2cc1OC [Compound 39, 1-(4-((6,7-dimethoxyquinolin-4-yl)oxy)-2-fluorophenyl)-3-(3-(trifluoromethyl)phenyl)urea] | < 5 nM
COc1cc2nccc(Oc3ccc(NC(=O)Nc4cc(C(F)(F)F)ccc4F)c(F)c3)c2cc1OC [Compound 40, 1-(4-((6,7-dimethoxyquinolin-4-yl)oxy)-2-fluorophenyl)-3-(2-fluoro-5-(trifluoromethyl)phenyl)urea] | < 5 nM

Same assay, conditions: KinaseSeeker, 1 μM

SMILES | activity against PfPK6 in words
O=C(Nc1ccc(O)cc1F)Nc1ccc(F)cc1F [Compound 5, 1-(2,4-difluorophenyl)-3-(2-fluoro-4-hydroxyphenyl)urea] | completely inactive
COc1ccc(NC(=O)Nc2ccc(F)cc2F)c(F)c1 [Compound 6, 1-(2,4-difluorophenyl)-3-(2-fluoro-4-methoxyphenyl)urea] | completely inactive
COc1cc2nccc(Oc3ccc(N)c(F)c3)c2cc1OC [Compound 14, 4-((6,7-dimethoxyquinolin-4-yl)oxy)-2-fluoroaniline] | complete loss of activity
COc1cc2nccc(Oc3ccc(N)cc3)c2cc1OC [Compound 15, 4-((6,7-dimethoxyquinolin-4-yl)oxy)aniline] | complete loss of activity
O=C(Nc1ccc(F)cc1F)Nc1ccc(Oc2cnnc3ccccc23)cc1F [Compound 24, 1-(4-(cinnolin-4-yloxy)-2-fluorophenyl)-3-(2,4-difluorophenyl)urea] | complete loss of potency

Same assay, conditions: compared to 41

SMILES | fold drop in activity against PfPK6 compared to 41
COc1cc2nccc(Oc3ccc(NC(=O)Nc4ccc(N5CCN(C)CC5)cc4)c(F)c3)c2cc1OC [Compound 59, 1-(4-((6,7-dimethoxyquinolin-4-yl)oxy)-2-fluorophenyl)-3-(4-(4-methylpiperazin-1-yl)phenyl)urea] | 30 fold
COc1cc2nccc(Oc3ccc(NC(=O)Nc4ccc(NC5CCN(C)CC5)cc4)c(F)c3)c2cc1OC [Compound 65, 1-(4-((6,7-dimethoxyquinolin-4-yl)oxy)-2-fluorophenyl)-3-(4-((1-methylpiperidin-4-yl)amino)phenyl)urea] | 12 fold

Same assay, conditions: compared to Ki8751

SMILES | fold drop in potency against PfPK6 relative to Ki8751 | fold increase in potency against PfPK6 compared to Ki8751
COc1ccc2c(Oc3ccc(NC(=O)Nc4ccc(F)cc4F)c(F)c3)ccnc2c1 [Compound 1, 1-(2,4-difluorophenyl)-3-(2-fluoro-4-((7-methoxyquinolin-4-yl)oxy)phenyl)urea] | 3 fold | –
COc1ccc2nccc(Oc3ccc(NC(=O)Nc4ccc(F)cc4F)c(F)c3)c2c1 [Compound 2, 1-(2,4-difluorophenyl)-3-(2-fluoro-4-((6-methoxyquinolin-4-yl)oxy)phenyl)urea] | 15 fold | –
O=C(Nc1ccc(F)cc1F)Nc1ccc(Oc2ccnc3ccccc23)cc1F [Compound 3, 1-(2,4-difluorophenyl)-3-(2-fluoro-4-(quinolin-4-yloxy)phenyl)urea] | 34 fold | –
COc1cc2nccc(Oc3ccc(NC(=O)Nc4ccccc4F)c(F)c3)c2cc1OC [Compound 7, 1-(4-((6,7-dimethoxyquinolin-4-yl)oxy)-2-fluorophenyl)-3-(2-fluorophenyl)urea] | – | ≥ 3 fold
COc1cc2nccc(Oc3ccc(NC(=O)Nc4ccc(F)cc4)c(F)c3)c2cc1OC [Compound 8, 1-(4-((6,7-dimethoxyquinolin-4-yl)oxy)-2-fluorophenyl)-3-(4-fluorophenyl)urea] | – | ≥ 3 fold
COc1cc2nccc(Oc3ccc(NC(=O)Nc4ccccc4)c(F)c3)c2cc1OC [Compound 9, 1-(4-((6,7-dimethoxyquinolin-4-yl)oxy)-2-fluorophenyl)-3-phenylurea] | – | ≥ 3 fold

Same assay, conditions: compared to quinoline 3

SMILES | fold improvement in PfPK6 potency on replacing the quinoline
O=C(Nc1ccc(F)cc1F)Nc1ccc(Oc2ccnc3[nH]ccc23)cc1F [Compound 29, 1-(4-((1H-pyrrolo[2,3-b]pyridin-4-yl)oxy)-2-fluorophenyl)-3-(2,4-difluorophenyl)urea] | 4 fold

Same assay, conditions: read-out: PfPK6 activity remaining at 1 μM (%)

SMILES | remaining activity at 1 µM
O=C(Nc1ccc(O)cc1F)Nc1ccc(F)cc1F [Compound 5, 1-(2,4-difluorophenyl)-3-(2-fluoro-4-hydroxyphenyl)urea] | 100%
COc1ccc(NC(=O)Nc2ccc(F)cc2F)c(F)c1 [Compound 6, 1-(2,4-difluorophenyl)-3-(2-fluoro-4-methoxyphenyl)urea] | 100%
COc1cc2nccc(Oc3ccc(N)c(F)c3)c2cc1OC [Compound 14, 4-((6,7-dimethoxyquinolin-4-yl)oxy)-2-fluoroaniline] | 100%
O=C(Nc1ccc(F)cc1F)Nc1ccc(Oc2cnnc3ccccc23)cc1F [Compound 24, 1-(4-(cinnolin-4-yloxy)-2-fluorophenyl)-3-(2,4-difluorophenyl)urea] | 100%
